Results as given in patent US20110166112A1, “METHOD FOR STIMULATING PLATELET PRODUCTION” (Eisai, Inc., priority 2009, published 2011).

Tested on: subjects with chronic idiopathic thrombocytopenic purpura (ITP)
Experiment: Phase 2 28-day study of E5501 tablets: safety and tolerability (TEAEs, discontinuations)
Format: in vivo, human
Conditions: for Discontinued study, primary reason Adverse Event or SAE / Discontinued study, primary reason Platelet Count Increase to ≧500 K/mm^3: Pharmacokinetic Population; for Abdominal pain / Diarrhoea / Ecchymosis / Epistaxis / Fatigue / Headache / Migraine / Nausea / Pain in extremity / Petechiae / Platelet count increased / Upper respiratory tract infection / Vomiting: TEAE
Experimental: This was a phase 2, multi-center, double-blind, randomized, placebo-controlled, dose-ranging, parallel group study of E5501 tablets, used in the treatment of subjects with chronic idiopathic thrombocytopenic purpura (ITP) refractory to or relapsed after at least one prior ITP therapy. Subjects who met all entry criteria were randomly assigned in a 3:3:3:3:1 ratio to one of the following five treatment groups dosed daily for 28 days: 1) E5501 2.5 mg; 2) E5501 5 mg; 3) E5501 10 mg; 4) E5501 20 mg; or 5) placebo (PBO). Each E5501 dosing group consisted of 15 subjects while the PBO group consisted of 5 subjects. All study subjects were evaluated weekly (days 7, 14, 21 and 28) for safety and efficacy while receiving study treatment, with a final assessment for safety and effectiveness performed 4 weeks after the last study dose (day 56) unless the subject entered the follow-on study. Platelet counts were also measured on day 3 and day 5.
The safety and tolerability parameters included adverse events, clinical laboratory parameters, study drug exposure, vital electrocardiograms, concomitant medications, serum pregnancy tests for women of childbearing potential and physical examinations including height, weight, general appearance and recording of vital signs.
The populations of interest were defined as follows: • The randomized population included all subjects who were randomized into the study. • The safety population included all randomized subjects who receive at least one dose of study drug and have at least one safety assessment. • The pharmacokinetic (PK) population included all subjects who provided blood sample for analysis of E5501. A subject was included in this population if the subject had at least one blood draw for PK assessment. • The full analysis set (FAS) included all subjects who provided adequate data to derive at least one efficacy assessment. […] The day 28 visit window was defined to be from day 25, to last dose day+1, inclusively; • Other major protocol violations that impacted the platelet endpoint evaluation. Results from Planned Analyses
Subject Disposition. Sixty four subjects were randomly assigned to treatment in this study. All treated subjects provided adequate efficacy data and therefore were included in the FAS population. The number and percentage of subjects who completed treatment or discontinued prematurely were summarized by treatment groups as shown in Table 1. In addition, the number and percentage of subjects who withdrew were summarized by reason for discontinuation by treatment group. The majority (>85%) of subjects completed the study across all dose groups for the FAS, randomized, and safety populations. Seven subjects who discontinued the study early all were from E5501 dose groups: two subjects in each of 2.5, 10 and 20 mg dose groups and one subject in the 5 mg dose group.

With `O=C(Nc1nc(-c2cc(Cl)cs2)c(N2CCN(C3CCCCC3)CC2)s1)c1cnc(N2CCC(C(=O)O)CC2)c(Cl)c1` [E5501, 1-(3-chloro-5-{[4-(4-chlorothiophen-2-yl)-5-(4-cyclohexylpiperazin-1-yl)thiazol-2-yl]carbamoyl}pyridine-2-yl)piperidine-4-carboxylic acid] as the compound, how does the “diarrhea, nausea and vomiting, total events” value read?
Its value is 12 events.

What about the “subjects whose platelet count decreased to below that of baseline upon discontinuation of E5501” value of the same compound?
Its value is 3 subjects.

And the “subjects with diarrhea, nausea and vomiting events” value?
The value was 7 subjects.

What about the “tolerability and safety profile” value of the same compound?
Its value is “well tolerated and had a favorable safety profile”.

And the Death (2.5 mg)?
The Death was 0 n (%).

What about the “Serious TEAEs (Any Serious TEAE)” value (2.5 mg) of the same compound?
Its value is 2 (13.3) n (%).

And the “TEAE Leading to Study Treatment Dose Interruption” value (2.5 mg)?
Its value is 0 n (%).

And the “TEAE Leading to Study Treatment Withdrawal” value (2.5 mg)?
The value was 0 n (%).

And the TEAEs (2.5 mg)?
Its TEAEs is 12 (80.0) n (%).

And the “Treatment-Related Serious TEAEs” value (2.5 mg)?
The value was 0 n (%).

What about the “Treatment-Related TEAEs” value (2.5 mg) of the same compound?
Its value is 6 (40.0) n (%).

And the “number of serious TEAEs” value (2.5 mg)?
The value was 2.

And the Death (5 mg)?
Its Death is 0 n (%).

What about the “Serious TEAEs (Any Serious TEAE)” value (5 mg) of the same compound?
Its value is 0 n (%).

What about the “TEAE Leading to Study Treatment Dose Interruption” value (5 mg) of the same compound?
The value was 1 (6.7) n (%).

What about the “TEAE Leading to Study Treatment Withdrawal” value (5 mg) of the same compound?
Its value is 1 (6.7) n (%).

What about the TEAEs (5 mg) of the same compound?
Its TEAEs is 13 (86.7) n (%).

What about the “Treatment-Related Serious TEAEs” value (5 mg) of the same compound?
The value was 0 n (%).

What about the “Treatment-Related TEAEs” value (5 mg) of the same compound?
Its value is 11 (73.3) n (%).

And the Death (10 mg)?
The Death was 0 n (%).

What about the “Serious TEAEs (Any Serious TEAE)” value (10 mg) of the same compound?
Its value is 1 (7.1) n (%).

And the “TEAE Leading to Study Treatment Dose Interruption” value (10 mg)?
The value was 0 n (%).

And the “TEAE Leading to Study Treatment Withdrawal” value (10 mg)?
The value was 1 (7.1) n (%).

And the TEAEs (10 mg)?
Its TEAEs is 11 (78.6) n (%).

And the “Treatment-Related Serious TEAEs” value (10 mg)?
The value was 1 (7.1) n (%).

What about the “Treatment-Related TEAEs” value (10 mg) of the same compound?
Its value is 8 (57.1) n (%).

What about the “number of serious TEAEs” value (10 mg) of the same compound?
The value was 4.

And the Death (20 mg)?
The Death was 0 n (%).

And the “Serious TEAEs (Any Serious TEAE)” value (20 mg)?
Its value is 0 n (%).

And the “TEAE Leading to Study Treatment Dose Interruption” value (20 mg)?
The value was 2 (13.3) n (%).

And the “TEAE Leading to Study Treatment Withdrawal” value (20 mg)?
The value was 2 (13.3) n (%).

What about the TEAEs (20 mg) of the same compound?
The TEAEs was 14 (93.3) n (%).

What about the “Treatment-Related Serious TEAEs” value (20 mg) of the same compound?
The value was 0 n (%).

What about the “Treatment-Related TEAEs” value (20 mg) of the same compound?
The value was 10 (66.7) n (%).

And the “subjects who withdrew due to excessively increased platelet counts (≧500,000/mm^3)” value (20 mg)?
The value was 2 subjects.

What about the “Discontinued study, primary reason Adverse Event or SAE” value (2.5 mg) of the same compound?
Its value is 0 n (%).

What about the “Discontinued study, primary reason Platelet Count Increase to ≧500 K/mm^3” value (2.5 mg) of the same compound?
Its value is 0 n (%).

And the “Discontinued study, primary reason Adverse Event or SAE” value (5 mg)?
Its value is 1 (6.7) n (%).

What about the “Discontinued study, primary reason Platelet Count Increase to ≧500 K/mm^3” value (5 mg) of the same compound?
Its value is 0 n (%).

And the “Discontinued study, primary reason Adverse Event or SAE” value (10 mg)?
Its value is 1 (7.1) n (%).

And the “Discontinued study, primary reason Platelet Count Increase to ≧500 K/mm^3” value (10 mg)?
Its value is 0 n (%).

And the “Discontinued study, primary reason Adverse Event or SAE” value (20 mg)?
Its value is 0 n (%).

What about the “Discontinued study, primary reason Platelet Count Increase to ≧500 K/mm^3” value (20 mg) of the same compound?
The value was 2 (13.3) n (%).

And the “Discontinued study, primary reason Adverse Event or SAE” value (Total E5501)?
Its value is 2 (3.4) n (%).

And the “Discontinued study, primary reason Platelet Count Increase to ≧500 K/mm^3” value (Total E5501)?
The value was 2 (3.4) n (%).

What about the Abdominal pain (2.5 mg) of the same compound?
The Abdominal pain was 0 n (%).

What about the Diarrhoea (2.5 mg) of the same compound?
Its Diarrhoea is 1 (6.7) n (%).

What about the Ecchymosis (2.5 mg) of the same compound?
Its Ecchymosis is 0 n (%).

And the Epistaxis (2.5 mg)?
The Epistaxis was 4 (26.7) n (%).

What about the Fatigue (2.5 mg) of the same compound?
The Fatigue was 2 (13.3) n (%).

What about the Headache (2.5 mg) of the same compound?
The Headache was 4 (26.7) n (%).

And the Migraine (2.5 mg)?
Its Migraine is 0 n (%).

What about the Nausea (2.5 mg) of the same compound?
Its Nausea is 0 n (%).

And the Pain in extremity (2.5 mg)?
Its Pain in extremity is 0 n (%).

And the Petechiae (2.5 mg)?
The Petechiae was 0 n (%).

What about the Platelet count increased (2.5 mg) of the same compound?
Its Platelet count increased is 0 n (%).

And the “Upper respiratory tract infection” value (2.5 mg)?
Its value is 1 (6.7) n (%).

And the Vomiting (2.5 mg)?
The Vomiting was 1 (6.7) n (%).

And the Abdominal pain (5 mg)?
The Abdominal pain was 2 (13.3) n (%).

What about the Diarrhoea (5 mg) of the same compound?
The Diarrhoea was 2 (13.3) n (%).

And the Ecchymosis (5 mg)?
The Ecchymosis was 0 n (%).

What about the Epistaxis (5 mg) of the same compound?
The Epistaxis was 2 (13.3) n (%).

What about the Fatigue (5 mg) of the same compound?
The Fatigue was 4 (26.7) n (%).

And the Headache (5 mg)?
The Headache was 3 (20.0) n (%).

And the Migraine (5 mg)?
Its Migraine is 0 n (%).

What about the Nausea (5 mg) of the same compound?
Its Nausea is 0 n (%).

What about the Pain in extremity (5 mg) of the same compound?
The Pain in extremity was 2 (13.3) n (%).

What about the Petechiae (5 mg) of the same compound?
The Petechiae was 0 n (%).

And the Platelet count increased (5 mg)?
The Platelet count increased was 0 n (%).

And the “Upper respiratory tract infection” value (5 mg)?
Its value is 0 n (%).

What about the Vomiting (5 mg) of the same compound?
The Vomiting was 0 n (%).

And the Abdominal pain (10 mg)?
Its Abdominal pain is 0 n (%).

And the Diarrhoea (10 mg)?
The Diarrhoea was 0 n (%).

And the Ecchymosis (10 mg)?
The Ecchymosis was 3 (21.4) n (%).

And the Epistaxis (10 mg)?
The Epistaxis was 1 (7.1) n (%).

And the Fatigue (10 mg)?
Its Fatigue is 4 (28.6) n (%).

And the Headache (10 mg)?
Its Headache is 1 (7.1) n (%).

And the Migraine (10 mg)?
Its Migraine is 0 n (%).

What about the Nausea (10 mg) of the same compound?
The Nausea was 2 (14.3) n (%).

And the Pain in extremity (10 mg)?
Its Pain in extremity is 0 n (%).

What about the Petechiae (10 mg) of the same compound?
The Petechiae was 0 n (%).

And the Platelet count increased (10 mg)?
Its Platelet count increased is 0 n (%).

And the “Upper respiratory tract infection” value (10 mg)?
The value was 2 (14.3) n (%).

And the Vomiting (10 mg)?
Its Vomiting is 1 (7.1) n (%).

And the Abdominal pain (20 mg)?
Its Abdominal pain is 0 n (%).

What about the Diarrhoea (20 mg) of the same compound?
The Diarrhoea was 2 (13.3) n (%).

What about the Ecchymosis (20 mg) of the same compound?
Its Ecchymosis is 0 n (%).

What about the Epistaxis (20 mg) of the same compound?
The Epistaxis was 2 (13.3) n (%).

What about the Fatigue (20 mg) of the same compound?
The Fatigue was 2 (13.3) n (%).

And the Headache (20 mg)?
Its Headache is 4 (26.7) n (%).

And the Migraine (20 mg)?
Its Migraine is 2 (13.3) n (%).

What about the Nausea (20 mg) of the same compound?
The Nausea was 1 (6.7) n (%).

And the Pain in extremity (20 mg)?
The Pain in extremity was 1 (6.7) n (%).

And the Petechiae (20 mg)?
The Petechiae was 2 (13.3) n (%).

And the Platelet count increased (20 mg)?
The Platelet count increased was 4 (26.7) n (%).

And the “Upper respiratory tract infection” value (20 mg)?
Its value is 0 n (%).

And the Vomiting (20 mg)?
Its Vomiting is 2 (13.3) n (%).

And the Abdominal pain (Total E5501)?
Its Abdominal pain is 2 (3.4) n (%).
